From patent publication US4338334A, “1-[4-(4-Sulfanilyl)phenyl] urea and derivatives in compositions and methods of treating rheumatoid arthritis and immune complex diseases” (priority 1980, dated 1982)

What was measured:
lymphocyte = lymphocyte transformation; assay type: cell-based
[1] = test system: mammalian macrophage membrane; test: incorporation of choline into the mammalian macrophage membrane; assay type: cell-based
methemoglobin = test system: methemoglobin; design: species or system mice; details: mouse, in vivo
mice = test: acute toxicity as measured by LD50 in mice; assay type: in vivo; details: compared with dapsone
Marek's disease = details: cited from earlier work
[2] = test system: chick peritoneal macrophages; details: Shigeura et al., 1975; cited from earlier work
[3] = cited from earlier work; for ability to alter the course of the disease / immune complexes as measured by rheumatoid factor titers: rheumatoid arthritis

| Compound | lymphocyte transformation (lymphocyte) | incorporation of choline into the mammalian macrophage membrane [1] | ability to alter the course of the disease [3] | immune complexes as measured by rheumatoid factor titers [3] | other results |
| --- | --- | --- | --- | --- | --- |
| NC(=O)Nc1ccc(S(=O)(=O)c2ccc(N)cc2)cc1 [1-[4-(4-sulfanilyl)phenyl]urea] | effect lymphocyte transformation | inhibit the incorporation |  |  | methemoglobin formation (methemoglobin): significantly less active in producing this toxic syndrome; acute toxicity as measured by LD50 (mice): less acutely toxic than dapsone; lesion incidence of poultry exposed to Marek's disease (Marek's disease): decreasing lesion incidence; mortality of poultry exposed to Marek's disease (Marek's disease): reducing mortality; incorporation of chloline in chick peritoneal macrophages [2]: inhibit the incorporation |
| CC(C)(S)[C@@H](N)C(=O)O [D-penicillamine] |  |  | can alter the course of the disease | reducing the immune complexes |  |
| Nc1ccc(S(=O)(=O)c2ccc(N)cc2)cc1 [Dapsone, 4,4'-diaminodiphenylsulfone] | effect lymphocyte transformation | inhibit the incorporation |  |  | effectiveness in treating rheumatoid arthritis ([3]; McConkey et al., 1976): effective in treating rheumatoid arthritis |
| CC(=O)Oc1ccccc1C(=O)O [aspirin] |  |  | unable to alter the course of the disease |  | symptomatic relief of the acute syndrome characterizing rheumatoid arthritis ([3]; in vivo): effective in providing symptomatic relief of the acute syndrome |
| gold |  |  | can alter the course of the disease | reducing the immune complexes |  |
